This test deals with T1, Sterol O-acyltransferase 2 (Homo sapiens, UniProt O75908).
T1 sequence (O75908 whole entry): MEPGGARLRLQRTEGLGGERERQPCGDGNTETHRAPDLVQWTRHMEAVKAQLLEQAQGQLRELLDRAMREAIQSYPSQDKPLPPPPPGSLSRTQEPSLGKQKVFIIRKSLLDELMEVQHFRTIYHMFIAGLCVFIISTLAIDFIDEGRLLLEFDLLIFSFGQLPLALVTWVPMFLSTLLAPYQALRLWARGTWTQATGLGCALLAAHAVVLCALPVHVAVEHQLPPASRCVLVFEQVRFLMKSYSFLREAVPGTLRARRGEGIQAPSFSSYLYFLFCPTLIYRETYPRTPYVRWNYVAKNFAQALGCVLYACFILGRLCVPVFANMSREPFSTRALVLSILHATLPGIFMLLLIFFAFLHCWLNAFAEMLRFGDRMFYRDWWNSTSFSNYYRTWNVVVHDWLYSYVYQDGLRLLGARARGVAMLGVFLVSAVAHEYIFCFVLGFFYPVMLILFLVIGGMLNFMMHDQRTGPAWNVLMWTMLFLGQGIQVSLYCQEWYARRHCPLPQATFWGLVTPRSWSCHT
The test is described as follows: Inhibition Assay: Methods for assessing the selectively of ACAT1 inhibitors are known in the art and can be based upon any conventional assay including, but not limited to the determination of the half maximal (50%) inhibitory concentration (IC) of a substance (i.e., 50% IC, or IC50), the binding affinity of the inhibitor (i.e., Ki), and/or the half maximal effective concentration (EC50) of the inhibitor for ACAT1 as compared to ACAT2. See, e.g., Lada, et al. (2004) J. Lipid Res. 45:378-386 and U.S. Pat. No. 5,968,749. ACAT1 and ACAT2 proteins that can be employed in such assays are well-known in the art and set forth, e.g., in GENBANK Accession Nos. NP-000010 (human ACAT1) and NP-005882 (human ACAT2). See also U.S. Pat. No. 5,834,283.

Regarding `CC(C)c1cccc(C(C)C)c1NC(=O)CC(=O)C(Cc1ccccc1)Cc1ccc(O)cc1` (stereo unspecified), the IC50 – broadly, the concentration at which inhibition is half-maximal – was 1.5 µM.

As for `CCCCCCCCC(=O)CNc1cc(-c2ccccc2)nn1-c1ccccc1`, the half-inhibitory concentration (IC50) came to 75 µM. For the compound `CCCCCCCCCCNc1cc(-c2ccccc2)nn1-c1ccccc1`, the concentration for half-maximal inhibition (IC50) came to 97 µM. This IC50 and that of the compound before are within 1.5-fold of each other.

In the case of `CCCC[C@H](C)[C@@H]1CC(=O)N[C@@H](Cc2ccccc2)C(=O)N[C@@H](C)C(=O)N[C@H](CC(C)C)C(=O)O1` [BEAUVERIOLIDE I], the half-maximal inhibitory concentration (IC50) was found to be 20 µM. `CCCCCCCC(=O)CNc1cc(-c2ccccc2)nn1-c1ccccc1` came in with an IC50 of 53 µM. This IC50 lies about 2.6-fold higher than the previous one.

Compound `CC(C)c1cccc(C(C)C)c1NC(=O)CC(=O)C(Cc1ccccc1)Cc1ccc(OC(=O)CCCCCCN2CCCCCC2=O)cc1` (stereo unspecified) registered an IC50 of 0.53 µM.

Source of the values: ChEMBL document CHEMBL3886271, “Method for selectively inhibiting ACAT1 in the treatment of alzheimer's disease” (2015).
